Measured values reported in patent EP0252983B1, “SALTS OF N-(VINYLOXIETHYL)DITHIOCARBAMIC ACID, METHOD OF OBTAINING THEREOF AND […] ON THEM” (priority 1985, dated 1987).

Legend:
Psoroptes cuniculi = assay: Acaricidal activity on isolated mites; assay type: in vivo
Description: Die akarizide Aktivität der Stoffe wird an isolierten Milben Psoroptes cuniculi als Erreger der Psoroptesräude bei Kaninchen geprüft. Von frischen Verkrustungen von Kaninchen mit Psoroptesräude, werden zu diesem Zweck 50 Milbenexemplare (Larven, Nymphen, Imago) gewählt und in Petri-Schalen auf ein Filterpapierblatt übertragen. Dann bringt man auf Milben und die ganze Blattoberfläche 1,5 ml zu prüfende wäßrige Stofflösung in destilliertem Wasser auf. Die Schale wird mit Deckel verschlossen und in einen Thermostat bei 30 °C und Feuchtegehalt von 90 % angeordnet. Der Wirkstoff wird als wäßrige Lösung mit einer zwischen 0,0039 und 4 % liegenden Konzentration genommen. Als Vergleichsmuster dient gleichzeitig eine wäßrige Lösung von Chlorophos. Milben werden im Kontrollversuch (Kontrolle auf Lebensfähigkeit)mit 1,5 ml physiologischer Lösung behandelt und in einen anderen Thermostat unter gleichen Temperatur- und Feuchtigkeitsbedingungen aufgestellt.
Nach 1, 2, 4, 6 Stunden und alle 24 Stunden betrachtet man die Milben im Mikroskop und zählt die toten Milben. Aufgrund der Milbenvernichtung durch einen 24-stündigen Kontakt mit dem Wirkstoff ermittelt man die LK-50 Werte. Die Versuche werden 5mal wiederholt. Arithmetische Mittelwerte gibt Tabelle 14 an.

[1] = system: Wurzelschimmelkomplex von Gewächshausgurken; assay: Greenhouse trial against cucumber root mould complex (200 m^2); assay type: in vivo
Description: Kalium-N-(vinyloxyäthyl)dithiocarbamat wurde gegen Wurzelschimmelkomplex von Gewächshausgurken auf einer Fläche von 200 m^2 und 1 ha geprüft. Die auf einer 200 m^2 großen Fläche durchgeführten Prüfungen haben gezeigt, daß Kalium-N-(vinyloxyäthyl)dithiocarbamat die 100%ige Unterdrückung von Erregern der Pythium-Fäule und der begleitenden Gurkenwurzelschimmeln bewirkt. Der Ernteertrag steigt dabei durch Bodenbehandlung um 4,2 kg/m^2 gegenüber Kontrolle (ohne Wirkstoffgabe ist der Ertrag 10 kg/m^2 und um 1,6 kg/m^2 gegenüber Fundazol an.

## C=COCCNC(=S)S [Kalium-N-(vinyloxyäthyl)dithiocarbamat]
Psoroptes cuniculi; 24-stündiger Kontakt mit dem Wirkstoff
  LK-50 %: 0,00208%
Psoroptes cuniculi; Konzentration 0,0039 %
  Vernichtung von 100 % der Milben nach Stunden: 48 Stunden
Psoroptes cuniculi; Konzentration 0,0078 %
  Vernichtung von 100 % der Milben nach Stunden: 24 Stunden
Psoroptes cuniculi; Konzentration 0,0625 %
  Vernichtung von 100 % der Milben nach Stunden: 6 Stunden
Psoroptes cuniculi; Konzentration 0,125 bis 0,5 %
  Vernichtung von 100 % der Milben nach Stunden: 4 Stunden
Psoroptes cuniculi; gegenüber Chlorophos
  selektive Toxizität gegen Räudemilben, dem Chlorophos überlegen: ~400 mal
[1]; 200 m^2 große Fläche
  Unterdrückung von Erregern der Pythium-Fäule und der begleitenden Gurkenwurzelschimmeln: 100%
[1]; Bodenbehandlung, 200 m^2
  Ernteertrag steigt gegenüber Fundazol: 1,6 kg/m^2
[1]; Bodenbehandlung, 200 m^2, Kontrolle 10 kg/m^2
  Ernteertrag steigt gegenüber Kontrolle: 4,2 kg/m^2
